Data on eleven compounds can be found in EP0103381B1, “Substituted anthra(1,9-cd)pyrazol-6(2H)-ones” (WARNER-LAMBERT COMPANY, priority 1982, dated 1984).

In one assay the test system is Aerobacter aerogenes. Kind of assay: agar plate paper-disc inhibition zone screening. Particulars: Klebsiella aerogenes, read-out: Inhibition Zone Diameter mm (Dose mg/ml) A. Aerogenes; for zone of inhibition at 1000 µg/mL: Dose 1.0 mg/ml; for zone of inhibition at 500 µg/mL: Dose 0.5 mg/ml. The format is cell-based. The gist of the method:
(§1)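 Overnight bacterial cultures were suspended in 0.85% saline to 20-35% light transmittancy and mixed into molten assay agar poured in trays. Compounds at 3,000, 1,000, 500, 100 and 10 mcg/ml (solvent <10%) were applied to 12.7 mm paper discs; after 18-20 h at 37°C, inhibition zone diameters were measured in mm.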

For another assay, the system named is Bacillus subtilis. Nature of the assay: agar plate paper-disc inhibition zone screening. The class given is cell-based. The conditions noted are these: read-out: Inhibition Zone Diameter mm (Dose mg/ml) B. Subtilis; for zone of inhibition at 1000 µg/mL: Dose 1.0 mg/ml; for zone of inhibition at 100 µg/mL: Dose 0.1 mg/ml; for zone of inhibition at 500 µg/mL: Dose 0.5 mg/ml. In outline: as §1

A further assay relates to Escherichia coli. Kind of assay: agar plate paper-disc inhibition zone screening. The format is cell-based. Particulars: read-out: Inhibition Zone Diameter mm (Dose mg/ml) E. Coli; for zone of inhibition at 1000 µg/mL: Dose 1.0 mg/ml; for zone of inhibition at 3000 µg/mL: Dose 3.0 mg/ml; for zone of inhibition at 100 µg/mL: Dose 0.1 mg/ml; for zone of inhibition at 500 µg/mL: Dose 0.5 mg/ml. In outline:
as §1

The subject of a further assay is Streptococcus faecalis. Nature of the assay: agar plate paper-disc inhibition zone screening. The format is cell-based. The conditions noted are these: Enterococcus faecalis, read-out: Inhibition Zone Diameter mm (Dose mg/ml) S. Faecalis; for zone of inhibition at 500 µg/mL: Dose 0.5 mg/ml; for zone of inhibition at 1000 µg/mL: Dose 1.0 mg/ml; for zone of inhibition at 3000 µg/mL: Dose 3.0 mg/ml. In outline: as §1

For another assay, the system named is Penicillium avellaneum. Nature of the assay: agar plate paper-disc inhibition zone screening. The format is cell-based. Particulars: Hamigera avellanea, read-out: Inhibition Zone Diameter mm (Dose mg/ml) P. Avellaneum; for zone of inhibition at 1000 µg/mL: Dose 1.0 mg/ml; for zone of inhibition at 3000 µg/mL: Dose 3.0 mg/ml. The gist of the method: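 Mycelia and spores from a six-day 28°C agar culture, suspended in saline with 0.05% Tween 80 at 20% transmittancy, were seeded into molten agar trays. Compounds at 3,000, 1,000, 500, 100 and 10 mcg/ml (solvent <10%) were applied on 12.7 mm paper discs. After at least 20-24 h incubation, inhibition zone diameter was measured in mm.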

Assay [1] deals with lymphocytic leukemia P388. Nature of the assay: in vivo lymphocytic leukemia P388 test. Details: species or system mice. The conditions noted are these: Mus musculus, P388, ip, 720 h, two single doses four days apart, read-out: T/C × 100 (Percent); for response vs control in vivo at 1.56 mg/kg: P388, Dose 1.56 mg/kg intraperitoneally; for response vs control in vivo at 6.25 mg/kg: P388, Dose 6.25 mg/kg intraperitoneally; for response vs control in vivo at 25 mg/kg: P388, Dose 25 mg/kg intraperitoneally; for response vs control in vivo at 3.12 mg/kg: P388, Dose 3.12 mg/kg intraperitoneally; for response vs control in vivo at 12.5 mg/kg: P388, Dose 12.5 mg/kg intraperitoneally. In outline: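 Efficacy was judged from the treated/control survival-time ratio over 30 days (T/C×100 >125% as criterion). Mice (CD2F, 6–7/group) received i.p. P388 ascites cells, then compound i.p. at varied doses twice, four days apart.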

Assay [2] concerns HCT-8 (human colon adenocarcinoma) cells. Nature of the assay: in vitro activity against human colon adenocarcinoma (HCT-8), cell count. The format is cell-based. The conditions noted are these: Homo sapiens; HCT-8 cells, 60-65 hrs with compound; molar quantity of drug required to kill 50% of the tumor cells; read-out: ID50 Molar. As to the method: HCT-8 (human colon adenocarcinoma) cells are trypsinized using Trypsin-EDTA. A single cell suspension is achieved by passing the cells through a 26 gauge needle with a 20 cc syringe. A cell suspension is prepared using RPMI 1640 growth medium (available from Gibco Laboratories) +10% fetal calf serum +50 µg/ml garamycin with a cell concentration of approximately 30,000 cells/ml. The cell suspension is dispensed in Linbro 24-well plates; 1 ml/well. The plates are incubated for approximately 48 hrs at 37°C in a 5% C02 atmosphere. At this time test compounds are added in the appropriate concentration. Five µl of the 200 µg/ml stock solution is added to each well in a primary test. Ten pl of the appropriate dilution is added to each well for a titration test. The plates are reincubated an additional 60-65 hrs at 37°C in a 5% C02 atmosphere. The test is read by lysing the cells using a mix of cationic surfactant, glacial acetic acid and sodium chloride. […] of the lysed cell suspension from each well is added to 8 ml of diluent. Each sample is read with a Coulter counter (ZBI model). The activity of each sample is measured as a percentage of the controls and the data is reported as ID50, that is the molar quantity of drug required to kill 50% of the tumor cells.

As to `CCN(CC)CCn1nc2c3c(c(NCCN4CCOCC4)ccc31)C(=O)c1ccccc1-2` [Example 4], the zone of inhibition at 1000 µg/mL came out at 15 mm with Aerobacter aerogenes, 25 mm in the assay on Bacillus subtilis, 14 mm in the assay on Escherichia coli and 14 mm in the assay on Penicillium avellaneum. The zone of inhibition at 500 µg/mL in the assay on Streptococcus faecalis amounted to 14 mm. Besides, the response vs control in vivo at 100 mg/kg in assay [1] (P388, Dose 100 mg/kg intraperitoneally) is 145%. In addition, the response vs control in vivo at 400 mg/kg in assay [1] (P388, Dose 400 mg/kg intraperitoneally) stood at 211%. Also, the IC50 in assay [2] was 120 nM.
Consider `Cn1nc2c3c(c(NCCNCCO)ccc31)C(=O)c1ccccc1-2` [Example 11, 5-[[2-[(2-Hydroxyethyl)amino]ethyl]amino]-2-methylanthra[1,9-cd]pyrazol-6(2H)-one], for which the zone of inhibition at 500 µg/mL in the assay on Aerobacter aerogenes was found to be 17 mm. The zone of inhibition at 100 µg/mL in the assay on Bacillus subtilis worked out at 14 mm. Besides, the zone of inhibition at 1000 µg/mL in the assay with Escherichia coli and with Streptococcus faecalis was 14 mm each time. The zone of inhibition at 3000 µg/mL with Penicillium avellaneum was found to be 0 mm. Further, in assay [2], the IC50 turned out to be 400 nM.
As for `CCN(CC)CCNc1ccc2c3c(nn2CCO)-c2ccccc2C(=O)c13` [Example 13, 5-[[2-(Diethylamino]ethyl]amino]-2-(2-hydroxyethyl)anthra[1,9-cd]pyrazol-6(2H)-one], the zone of inhibition at 500 µg/mL with Aerobacter aerogenes is 20 mm. Besides, the zone of inhibition at 100 µg/mL in the assay on Bacillus subtilis worked out at 15 mm. In addition, the zone of inhibition at 1000 µg/mL in the assay on Escherichia coli worked out at 15 mm; in the assay with Streptococcus faecalis it was 14 mm. Also, in the assay on Penicillium avellaneum, the zone of inhibition at 3000 µg/mL came out at 16 mm. In assay [2], the IC50 came to 1800 nM.
Turning to `CCN(CC)CCCNc1ccc2c3c(nn2CCO)-c2ccccc2C(=O)c13` [Example 15, 5-[[3-(Diethylamino)propyl]amino]-2-(2-hydroxyethyl)anthra[1,9-cd]pyrazol-6(2H)-one], the figures for the zone of inhibition at 1000 µg/mL with Aerobacter aerogenes and with Bacillus subtilis were 15 mm and 22 mm, respectively. Further, the zone of inhibition at 3000 µg/mL worked out at 0 mm in the assay with Escherichia coli, 14 mm in the assay on Streptococcus faecalis and 0 mm with Penicillium avellaneum. In addition, the IC50 in assay [2] was determined as 480 nM.
Take `O=C1c2ccccc2-c2n[nH]c3ccc(NCCNCCO)c1c23` [Example 19, 5-[[2-[(2-Hydroxyethyl)amino]ethyl]amino]anthra[1,9-cd]pyrazol-6-(2H)-one]: the zone of inhibition at 500 µg/mL with Aerobacter aerogenes stood at 18 mm; in the assay on Bacillus subtilis, 19 mm. The zone of inhibition at 3000 µg/mL with Escherichia coli was determined as 0 mm; in the assay on Streptococcus faecalis, 17 mm; in the assay with Penicillium avellaneum it was 0 mm. Besides, in assay [2], the IC50 turned out to be 1500 nM.
For the compound `O=C1c2ccccc2-c2nn(CCNCCO)c3ccc(NCCNCCO)c1c23` [Example 21, 2-[2-[(2-Hydroxyethyl)amino]ethyl]-5-[[2-[(2-hydroxyethyl)amino]ethyl]amino]anthra[1,9-cd]pyrazol-6(2H)-one], in the assay on Aerobacter aerogenes, the zone of inhibition at 1000 µg/mL came out at 14 mm. Also, in the assay on Bacillus subtilis, the zone of inhibition at 500 µg/mL turned out to be 18 mm. In addition, the zone of inhibition at 3000 µg/mL in the assay with Escherichia coli is 16 mm. Besides, in the assay with Streptococcus faecalis, the zone of inhibition at 3000 µg/mL was determined as 0 mm. Further, in the assay with Penicillium avellaneum, the zone of inhibition at 3000 µg/mL stood at 0 mm. Moreover, in assay [1], the response vs control in vivo at 1.56 mg/kg was determined as 132%, the response vs control in vivo at 6.25 mg/kg amounted to 147% and the response vs control in vivo at 25 mg/kg stood at 171%. In assay [1] (P388, Dose 50 mg/kg intraperitoneally), the response vs control in vivo at 50 mg/kg is 199%. Moreover, in assay [2], the IC50 was determined as 960 nM.
As to `NCCNc1ccc2c3c(nn2CCNCCO)-c2ccccc2C(=O)c13` [Example 22, 5-[(2-Aminoethyl)amino]-2-[2-[(2-hydroxyethyl)amino]ethyl]anthra[1,9-cd]pyrazol-6(2H)-one], the zone of inhibition at 500 µg/mL with Aerobacter aerogenes was found to be 16 mm. Besides, the zone of inhibition at 100 µg/mL with Bacillus subtilis is 15 mm. For the same compound, in the assay with Escherichia coli, the zone of inhibition at 100 µg/mL was 14 mm. The zone of inhibition at 3000 µg/mL in the assay with Streptococcus faecalis turned out to be 0 mm. Also, the zone of inhibition at 3000 µg/mL with Penicillium avellaneum was found to be 0 mm. Further, in assay [1], the response vs control in vivo at 1.56 mg/kg was 150%, the response vs control in vivo at 3.12 mg/kg came out at 162%, the response vs control in vivo at 12.5 mg/kg is 175% and the response vs control in vivo at 25 mg/kg amounted to 189%. The IC50 in assay [2] turned out to be 42 nM.
Consider `CCN(CC)CCNc1ccc2c3c(nn2CCNCCO)-c2ccccc2C(=O)c13` [Example 23, 5-[[2-(Diethylamino)ethyl]amino]-2-[2-[(2-hydroxyethyl)amino]ethyl]anthra[1,9-cd]pyrazol-6(2H)-one], for which the zone of inhibition at 500 µg/mL in the assay with Aerobacter aerogenes was 18 mm. Besides, the zone of inhibition at 100 µg/mL in the assay with Bacillus subtilis was 14 mm. Further, the zone of inhibition at 100 µg/mL in the assay with Escherichia coli is 14 mm. For the same compound, the zone of inhibition at 500 µg/mL in the assay with Streptococcus faecalis was found to be 15 mm. Moreover, the zone of inhibition at 3000 µg/mL with Penicillium avellaneum amounted to 16 mm. Also, in assay [1], the response vs control in vivo at 1.56 mg/kg came out at 138%, the response vs control in vivo at 3.12 mg/kg was 143%, the response vs control in vivo at 6.25 mg/kg was 138% and the response vs control in vivo at 12.5 mg/kg came out at 150%. Also, in assay [1], the response vs control in vivo at 25 mg/kg was determined as 149%. Besides, the IC50 in assay [2] is 120 nM.
Take `CNc1ccc2c3c(nn2CCNCCO)-c2ccccc2C(=O)c13` [Example 26, 2-[2-[(2-Hydroxyethyl)amino]ethyl]-5-(methylamino)anthra[1,9-cd]pyrazol-6(2H)-one]: the figures for the zone of inhibition at 100 µg/mL in the assay on Aerobacter aerogenes (Dose 0.1 mg/ml) and with Bacillus subtilis were 15 mm and 14 mm, respectively. Moreover, the zone of inhibition at 500 µg/mL in the assay with Escherichia coli came out at 14 mm; in the assay on Streptococcus faecalis, 15 mm. Further, the zone of inhibition at 3000 µg/mL in the assay with Penicillium avellaneum stood at 0 mm. For the same compound, the IC50 in assay [2] was 280 nM.
With `CCN(CC)CCn1nc2c3c(cccc31)C(=O)c1c(NCCNCCO)cccc1-2` [Example 79, 2-[2-(Diethylamino)ethyl]-7-[[2-[(2-hydroxyethyl)amino]ethyl]amino]anthra[1,9-cd]pyrazol-6(2H)-one], the zone of inhibition at 500 µg/mL with Aerobacter aerogenes came to 18 mm; in the assay on Escherichia coli, 15 mm; with Streptococcus faecalis it was 16 mm. For the same compound, the zone of inhibition at 100 µg/mL in the assay with Bacillus subtilis is 20 mm. In addition, the zone of inhibition at 3000 µg/mL in the assay on Penicillium avellaneum was found to be 15 mm. The IC50 in assay [2] came to 93 nM.
For the compound `CCN(CC)CCNc1cccc2c1C(=O)c1cccc3c1c-2nn3CCN(CC)CC` [Example 80, 2-[2-(Diethylamino)ethyl]-7-[[2-(diethylamino)ethyi]amino]anthra[1,9-cd]pyrazol-6(2H)-one], the zone of inhibition at 500 µg/mL with Aerobacter aerogenes was found to be 16 mm; with Escherichia coli, 14 mm; in the assay on Streptococcus faecalis it was 15 mm. Besides, the zone of inhibition at 100 µg/mL in the assay on Bacillus subtilis was found to be 19 mm. Moreover, the zone of inhibition at 1000 µg/mL in the assay with Penicillium avellaneum was 16 mm. In addition, the IC50 in assay [2] is 220 nM.
